Results on 8 molecules are retold here after patent publication US20050267126A1, “Compounds derived from aryl carbamates, preparation thereof and uses of same” (priority 2002, published 2005).

Molecules are shown by their SMILES.

The target in this experiment is T1, human isoform h5-HT4e (Homo sapiens, UniProt Q13639).
T1 construct: expressed in transfected cells; host or cells: rat glial cells, stably expressing; membranes prepared from homogenized cells
The experiment can be described thus: displacement of radiolabelled ligand [3H]-GR113808, affinity constant Ki. The class given is binding. To be noted: [3H]-GR113808 0.2 nM; membranes of rat glial cells stably expressing h5-HT4e; 25° C., 30 min. How it is done:
The compounds of the invention were evaluated by measuring their affinity constant Ki determined by displacement of a radiolabelled ligand [^3H]—GR113808 in rat glial cells stably expressing the human isoform h5-HT4e.
Confluent glial cells were washed twice with PBS and centrifuged at 300 g for 5 min. The pellet was used immediately and the cells were suspended in 10 volumes of HEPES (50 mM, pH 7.4, 4° C.) then homogenized in a teflon homogenizer and centrifuged at 40,000 g for 20 min. The pellet was again suspended in 15 volumes of HEPES. Binding displacement experiments were carried out in […] of 50 mM HEPES buffer containing 20 μl of the radiolabelled ligand [^3H]—GR113808 at a concentration of 0.2 nM for the isoform h5-HT4e or at a concentration equal to one-half the Kd of the radioligand for the other isoforms expressed in COS cells, 20 μl of competitor ligand at 7 different concentrations and 50 μl of membrane preparation (100-200 μg of protein determined by the Bradford method). Binding was carried out at 25° C. for 30 min and the reaction was stopped by rapid vacuum filtration (Brandel Harvester) on Whatman GF/B filters preincubated in 0.1% PEI to reduce nonspecific binding.
Membrane-bound radioactivity was retained on the filter, which was cut and washed with cold buffer (50 mM Tris-HCl, pH 7.4) and incubated overnight in 4 ml of scintillation fluid. Radioactivity was measured in a liquid scintillation counter (Beckmann LS 6500C). Binding data were obtained by computer-assisted linear regression. (Graph Prism Program, Graph Pad Software. Inc., San Diego, Calif.)

T1 sequence (Q13639 1-378 isoform Q13639-5): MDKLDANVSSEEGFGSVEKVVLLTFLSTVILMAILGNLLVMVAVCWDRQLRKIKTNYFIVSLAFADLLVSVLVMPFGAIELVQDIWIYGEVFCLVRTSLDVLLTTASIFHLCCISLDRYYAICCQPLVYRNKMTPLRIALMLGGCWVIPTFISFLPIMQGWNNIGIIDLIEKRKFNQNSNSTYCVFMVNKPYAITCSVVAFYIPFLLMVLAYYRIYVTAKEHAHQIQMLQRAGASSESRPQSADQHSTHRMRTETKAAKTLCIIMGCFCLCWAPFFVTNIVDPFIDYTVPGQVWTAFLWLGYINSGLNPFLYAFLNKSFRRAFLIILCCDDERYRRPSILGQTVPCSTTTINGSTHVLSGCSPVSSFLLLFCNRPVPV

What is called Ki is a measure of affinity in units of concentration, obtained from inhibition or displacement. In the case of `CCOc1ccccc1NC(=O)OCCN1CCN(c2cccc(NC(=O)NCC3CCCN3CC)c2)CC1` (centres unmarked) [Example 57, 2-(4-{3-[3-(1-ethyl-pyrrolidin-2-ylmethyl)-ureido]-phenyl}-piperazin-1-yl)-ethyl-N-(2-ethoxy-phenyl)carbamate], affinity was put at a Ki of 0.09 nM.

Regarding `CCOc1ccccc1NC(=O)OCCN1CCN(c2cccc(C(=O)NCCN3CCCCC3)c2)CC1` [Example 78, 2-(4-{3-[2-piperidin-1-yl-ethylcarbamoyl]-phenyl}-piperazin-1-yl)-ethyl-N-(2-ethoxy-phenyl)carbamate], affinity was put at a Ki of 0.16 nM.

Molecule `CCOc1ccccc1NC(=O)OCCN1CCN(c2cccc(NC(=O)C(N)Cc3ccc(O)cc3)c2)CC1` (centres unmarked) [Example 44, 2-(4-{3-[2-amino-3-(4-hydroxy-phenyl)-propionylamino]-phenyl}-piperazin-1-yl)-ethyl-N-(2-ethoxy-phenyl)carbamate] displayed an inhibitory constant (Ki) of 0.18 nM.

`CCOc1ccccc1NC(=O)OCCN1CCN(c2cccc(NC(=O)C3=CCCN(C)C3)c2)CC1` [Example 21, 2-(4-{3-[(1-methyl-1,2,5,6-tetrahydro-pyridine-3-carbonyl)-amino]-phenyl}-piperazin-1-yl)-ethyl-N-(2-ethoxy-phenyl)carbamate] came in with an inhibitory constant (Ki) of 0.13 nM.

For the molecule `CCOc1ccccc1NC(=O)OCCN1CCN(c2cccc(NC(=O)N3CCC(N4CCCC4)CC3)c2)CC1` [Example 59, 2-(4-{3-[(4-pyrrolidin-1-yl-piperidine-1-carbonyl)-amino]-phenyl}-piperazin-1-yl)-ethyl-N-(2-ethoxy-phenyl)carbamate], affinity was put at a Ki of 0.24 nM. Against the preceding molecule, the Ki is about 1.8-fold higher.

In turn, `CCOc1ccccc1NC(=O)OCCN1CCN(c2cccc(NC(=O)CCN)c2)CC1` [Example 42, 2-{4-[3-(3-amino-propionylamino)-phenyl]-piperazin-1-yl}-ethyl-N-(2-ethoxy-phenyl)carbamate] gave an inhibitory constant (Ki) of 0.17 nM. This Ki and that of the molecule before are within 1.5-fold of each other.

The molecule `CCOc1ccccc1NC(=O)OCCN1CCN(c2cccc(NC(=O)NCCCN3CCN(C)CC3)c2)CC1` [Example 60, 2-[4-(3-{3-[3-(4-methyl-piperazin-1-yl)-propyl]-ureido}-phenyl)-piperazin-1-yl]-ethyl-N-(2-ethoxy-phenyl)carbamate] registered a Ki of 0.2 nM.

The molecule `CCOc1ccccc1NC(=O)OCCN1CCN(c2cccc(C(=O)N(C)CCN(C)C)c2)CC1` [Example 105, 2-(4-{3-[(2-dimethylamino-ethyl)-methyl-carbamoyl]-phenyl}-piperazin-1-yl)-ethyl N-(2-ethoxy-phenyl)-carbamate] registered a Ki of 0.75 nM.
